Measurements published in patent US20180343865A1, “HERBICIDAL COMPOSITIONS COMPRISING ISOXAZOLO[5,4-B]PYRIDINES” (BASF SE, priority 2015, published 2018).
Several values for one entry are separate records, joined by “and”; a condition that tells them apart may be missing. Equal entries are not always repeated. Where two headings read alike, the source gives them in different places.

How the values were obtained:
Type in all cases: in vivo
Matricaria chamomilla = test: Greenhouse postemergence herbicidal activity on MATCH, 20 DAT; details: Matricaria chamomilla, post-emergence, 62.5 gai/ha
Protocol: (§1) For the post emergence treatment, the plants were first grown to the 2 leaf station (GS 12) and applied at GS 12-19 depending on the species. The herbicidal compositions were suspended or emulsified in water as distribution medium and sprayed using finely distributing nozzles.
(§2) The plants have been cultivated due to their individual requirements at 10 to 25° C. and. 20 to 35° C. The plants were irrigated due to their necessity.
(§3) The respective stated components A), were formulated as a 5% by weight strength emulsion concentrate containing wettol EM 31 20% and Cyclohexanone 80%. The respective stated components B), were formulated as either emulsifiable concentrates (EC), soluble liquids (SL), suspension concentrates (SC) or soluble granules (SG) as indicated in the table below. Component A, component B and the solvent system are introduced into the spray liquor used for applying the active compound. In the examples, the solvent used was water containing 1% Dash (Agnique ME 181 37.5%, Lutensit A-EP 22.5%, and Oleic Acid 5%) and 2% ammonium suflate.
(§4) In the following experiments, the herbicidal activity for the individual herbicide compounds (solo and mixture applications), the herbicidal succession was assessed 20 days after treatment (DAT). The evaluation for the damage on undesired weeds caused by the chemical compositions was carried out using a scale from 0 to 100%, compared to the untreated control plants. Here, 0 means no damage and 100 means complete destruction of the plants. The plants used in the greenhouse experiments belonged to the following species:
(§5) The value E, which corresponds to the effect (in %) that is to be expected if the activity of the individual compounds is additive, was calculated using the method of S. R. Colby (1967) “Calculating synergistic and antagonistic responses of herbicide combinations”, Weeds 15, p. 22 ff. Colby calculation for 2 way mixtures:
(§6) where: • X=effect in percent using herbicide A at an application rate a; • Y=effect in percent using herbicide B at an application rate b; • E=expected effect (in %) of A+B at application rates a+b
(§7) If the value observed in this manner is higher than the value E calculated according to Colby, a synergistic effect is present.

CONAR = test: Greenhouse postemergence herbicidal activity on CONAR, 20 DAT; details: post-emergence, Table 8, read-out: % activity, solo application (I.A)
Polygonum aviculare = test: Greenhouse postemergence herbicidal activity on POLAV, 20 DAT; details: Polygonum aviculare, post-emergence, 480 h, read-out: % activity, solo (I.A)
Protocol: as §1, §2, §3, §4, §5, §6, §7

BROST = test: Greenhouse postemergence herbicidal activity on BROST, 20 DAT; details: post-emergence, 31.25 gai/ha, Table 8, read-out: % activity, solo application (I.A)
DIGSA = test: Greenhouse postemergence herbicidal activity on DIGSA, 20 DAT; details: Digitaria sanguinalis, post-emergence, Table 8, read-out: % activity, solo application (I.A)
Polygonum convolvulus = test: Greenhouse postemergence herbicidal activity on POLCO, 20 DAT; details: Fallopia convolvulus, post-emergence, POLCO, postemergence; for inhibition at 62.5 g/ha: 62.5 gai/ha
Summary of the method: (§8)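 Visual injury scores (0–100%, relative to untreated plants) were taken 20 DAT after foliar spraying at GS 12-19. Solo and mixture treatments were applied in water with 1% Dash and 2% ammonium sulfate. Expected additive effect E derived by Colby's method.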

Chenopodium album = test: Greenhouse postemergence herbicidal activity on CHEAL, 20 DAT; details: for inhibition at 15.6 g/ha: 15.6 gai/ha; for inhibition at 125 g/ha: 125 gai/ha; for inhibition at 250 g/ha: 250 gai/ha
Summary of the method: as §8

Sinapis arvensis = test: Greenhouse postemergence herbicidal activity on SINAR, 20 DAT; details: Mutarda arvensis, post-emergence, 480 h, read-out: % activity, solo (I.A)
Protocol: as §1, §2, §3, §4, §5, §6, §7

Polygonum persicaria = test: Greenhouse postemergence herbicidal activity on POLPE, 20 DAT; details: Persicaria maculosa, post-emergence, 480 h, POLPE, postemergence, 20 DAT, read-out: % activity, solo (I.A)
Protocol: as §1, §2, §3, §4, §5, §6, §7

Stellaria media = test: Greenhouse postemergence herbicidal activity on STEME, 20 DAT; details: STEME, postemergence
Protocol: as §1, §2, §3, §4, §5, §6, §7

Ambrosia elatior = test: Greenhouse postemergence herbicidal activity on AMBEL, 20 DAT; details: AMBEL, postemergence, 20 DAT
Protocol: as §1, §2, §3, §4, §5, §6, §7

Galium aparine = test: Greenhouse postemergence herbicidal activity on GALAP, 20 DAT; details: Galium aparine, post-emergence; for inhibition at 31.25 g/ha: 31.25 gai/ha; for inhibition at 62.5 g/ha: 62.5 gai/ha; for inhibition at 125 g/ha: 125 gai/ha; for inhibition at 250 g/ha: 250 gai/ha
Summary of the method: as §8

Ipomoea hederacea = test: Greenhouse postemergence herbicidal activity on IPOHE, 20 DAT; details: for inhibition at 125 g/ha: 125 gai/ha
Summary of the method: as §8

[1] = Table 8, read-out: % activity, solo application (I.A)
[2] = 480 h, 20 DAT, read-out: % activity, solo (I.A)
[3] = Table 6, read-out: % activity, solo application (I.A)
[4] = Chenopodium album, post-emergence, Table 6, read-out: % activity, solo application (I.A)
[5] = Chenopodium album, post-emergence, 480 h, 20 DAT, read-out: % activity, solo (I.A)

SMILES: CC(C)c1noc2nc(C3CC3)cc(C(=O)O)c12 [(I.A)]
- inhibition at 62.5 g/ha (Matricaria chamomilla; [1]): 70%
- inhibition at 62.5 g/ha (Matricaria chamomilla; [2]): 65%
- inhibition at 7.8 g/ha (CONAR; 7.8 gai/ha): 0%
- inhibition at 15.6 g/ha (CONAR; 15.6 gai/ha): 0%
- inhibition at 31.25 g/ha (CONAR; 31.25 gai/ha): 0%
- inhibition at 62.5 g/ha (CONAR; 62.5 gai/ha): 35%
- inhibition at 15.6 g/ha (Polygonum aviculare; 15.6 gai/ha): 10%
- inhibition at 31.25 g/ha (Polygonum aviculare; 31.25 gai/ha): 35%
- inhibition at 62.5 g/ha (Polygonum aviculare; 62.5 gai/ha): 50%
- inhibition at 125 g/ha (Polygonum aviculare; 125 gai/ha): 90%
- inhibition at 31.25 g/ha (BROST): 0%
- inhibition at 31.25 g/ha (DIGSA; 31.25 gai/ha): 0%
- inhibition at 62.5 g/ha (DIGSA; 62.5 gai/ha): 0%
- inhibition at 15.6 g/ha (Polygonum convolvulus; 480 h, 15.6 gai/ha, 20 DAT, read-out: % activity, solo (I.A)): 30%
- inhibition at 31.25 g/ha (Polygonum convolvulus; 31.25 gai/ha, Table 6, read-out: % activity, solo application (I.A)): 73%
- inhibition at 62.5 g/ha (Polygonum convolvulus; [3]): 95%
- inhibition at 62.5 g/ha (Polygonum convolvulus; [1]): 35%
- inhibition at 125 g/ha (Polygonum convolvulus; 125 gai/ha, Table 6, read-out: % activity, solo application (I.A)): 99%
- % activity, solo (I.A) (Chenopodium album; 62.5 gai/ha, 20 DAT): 65% and 93%
- inhibition at 7.8 g/ha (Chenopodium album; Chenopodium album, post-emergence, 7.8 gai/ha, Table 8, read-out: % activity, solo application (I.A)): 50%
- inhibition at 15.6 g/ha (Chenopodium album; Chenopodium album, post-emergence, Table 8, read-out: % activity, solo application (I.A)): 85%
- inhibition at 31.25 g/ha (Chenopodium album; Chenopodium album, post-emergence, 31.25 gai/ha, Table 6, read-out: % activity, solo application (I.A)): 58%
- inhibition at 62.5 g/ha (Chenopodium album; Chenopodium album, post-emergence, 62.5 gai/ha, Table 6, read-out: % activity, solo application (I.A)): 78%
- inhibition at 125 g/ha (Chenopodium album; [4]): 83%
- inhibition at 250 g/ha (Chenopodium album; [4]): 98%
- inhibition at 15.6 g/ha (Chenopodium album; [5]): 10%
- inhibition at 125 g/ha (Chenopodium album; [5]): 83%
- inhibition at 250 g/ha (Chenopodium album; [5]): 98%
- inhibition at 15.6 g/ha (Sinapis arvensis; 15.6 gai/ha): 95%
- inhibition at 31.25 g/ha (Sinapis arvensis; 31.25 gai/ha): 78%
- inhibition at 62.5 g/ha (Sinapis arvensis; 62.5 gai/ha): 83%
- inhibition at 125 g/ha (Sinapis arvensis; 125 gai/ha): 90%
- inhibition at 15.6 g/ha (Polygonum persicaria; 15.6 gai/ha): 70%
- inhibition at 31.25 g/ha (Polygonum persicaria; 31.25 gai/ha): 80%
- % activity, solo (I.A) (Stellaria media; 31.25 gai/ha, 20 DAT): 35%
- % activity, solo (I.A) (Stellaria media; 62.5 gai/ha, 20 DAT): 70% and 95%
- inhibition at 31.25 g/ha (Stellaria media; Stellaria media, post-emergence, 480 h, 31.25 gai/ha, 20 DAT, read-out: % activity, solo (I.A)): 20%
- inhibition at 15.6 g/ha (Stellaria media; Stellaria media, post-emergence, 15.6 gai/ha, Table 8, read-out: % activity, solo application (I.A)): 0%
- inhibition at 31.25 g/ha (Stellaria media; Stellaria media, post-emergence, 31.25 gai/ha, Table 8, read-out: % activity, solo application (I.A)): 0%
- inhibition at 62.5 g/ha (Stellaria media; Stellaria media, post-emergence, 62.5 gai/ha, Table 8, read-out: % activity, solo application (I.A)): 0%
- % activity, solo (I.A) (Ambrosia elatior; 31.25 gai/ha): 50% and 25%
- inhibition at 15.6 g/ha (Ambrosia elatior; Ambrosia artemisiifolia, post-emergence, 480 h, 15.6 gai/ha, read-out: % activity, solo (I.A)): 0%
- inhibition at 62.5 g/ha (Ambrosia elatior; Ambrosia artemisiifolia, post-emergence, 480 h, 62.5 gai/ha, read-out: % activity, solo (I.A)): 70%
- inhibition at 31.25 g/ha (Galium aparine; [3]): 43%
- inhibition at 62.5 g/ha (Galium aparine; [3]): 60%
- inhibition at 62.5 g/ha (Galium aparine; [1]): 45%
- inhibition at 125 g/ha (Galium aparine; [3]): 73%
- inhibition at 250 g/ha (Galium aparine; [3]): 95%
- inhibition at 31.25 g/ha (Galium aparine; [2]): 43%
- inhibition at 62.5 g/ha (Galium aparine; [2]): 60%
- inhibition at 125 g/ha (Galium aparine; [2]): 73%
- inhibition at 250 g/ha (Galium aparine; [2]): 95%
- % activity, solo (I.A) (Ipomoea hederacea; 31.25 gai/ha, 20 DAT): 95%
- % activity, solo (I.A) (Ipomoea hederacea; 62.5 gai/ha, 20 DAT): 95%
- inhibition at 31.25 g/ha (Ipomoea hederacea; Ipomoea hederacea, post-emergence, 31.25 gai/ha, Table 6, read-out: % activity, solo application (I.A)): 75%
- inhibition at 31.25 g/ha (Ipomoea hederacea; Ipomoea hederacea, post-emergence, 31.25 gai/ha, Table 8, read-out: % activity, solo application (I.A)): 50%
- inhibition at 62.5 g/ha (Ipomoea hederacea; Ipomoea hederacea, post-emergence, 62.5 gai/ha, Table 6, read-out: % activity, solo application (I.A)): 87%
- inhibition at 125 g/ha (Ipomoea hederacea; Ipomoea hederacea, post-emergence, Table 6, read-out: % activity, solo application (I.A)): 98%
- inhibition at 128 g/ha (Ipomoea hederacea; Ipomoea hederacea, post-emergence, 128 gai/ha, Table 6, read-out: % activity, solo application (I.A)): 98%
- inhibition at 250 g/ha (Ipomoea hederacea; Ipomoea hederacea, post-emergence, 250 gai/ha, Table 6, read-out: % activity, solo application (I.A)): 99%
- inhibition at 15.6 g/ha (Ipomoea hederacea; Ipomoea hederacea, post-emergence, 480 h, 15.6 gai/ha, 20 DAT, read-out: % activity, solo (I.A)): 65%
- inhibition at 31.25 g/ha (Ipomoea hederacea; Ipomoea hederacea, post-emergence, 480 h, 31.25 gai/ha, 20 DAT, read-out: % activity, solo (I.A)): 75%
- inhibition at 62.5 g/ha (Ipomoea hederacea; Ipomoea hederacea, post-emergence, 480 h, 62.5 gai/ha, 20 DAT, read-out: % activity, solo (I.A)): 87%
- inhibition at 125 g/ha (Ipomoea hederacea; Ipomoea hederacea, post-emergence, 480 h, 20 DAT, read-out: % activity, solo (I.A)): 98%
